From PMC11864979, “First-in-class ultralong-target-residence-time p38α inhibitors as a mitosis-targeted therapy for colorectal cancer” (Nature Cancer, 2025)
Several values for one entry are separate records, joined by “and”; a condition that tells them apart may be missing. Equal entries are not always repeated. Where two headings read alike, the source gives them in different places.

Experiments:
[1] = tested on: RKO; experiment: cell viability in human CRC cell line RKO; format: cell-based; conditions: ED Fig. 9g, replicates; for viability at 0.0137 µM: read-out: RKO Cell viability (%), 0.0137 µM; for viability at 0.0412 µM: read-out: RKO Cell viability (%), 0.0412 µM; for viability at 0.1235 µM: read-out: RKO Cell viability (%), 0.1235 µM; for viability at 0.3704 µM: read-out: RKO Cell viability (%), 0.3704 µM; for viability at 3.3333 µM: read-out: RKO Cell viability (%), 3.3333 µM; for viability at 10 µM: read-out: RKO Cell viability (%), 10.0000 µM
Experimental: (§1) To generate KAP^2D cells, KAP organoids were isolated from Matrigel, fragmented by mechanical dissociation and plated without any extracellular matrix on common cell culture dishes. Phoenix-Eco packaging cells (CRL-3214), HCT-15 (CCL-225), HCT 116 (CCL-247), COLO 205 (CCL-222), LS 174T (CL-188), RKO (CRL-2577) and HT-29 (HTB-38) were obtained from the American Type Culture Collection. The cells were cultured at 37 °C and 7% CO2 with RPMI (KAP^2D cells) or DMEM (other cell lines), supplemented with 10% FBS and penicillin–streptomycin. KAP^2D cells were authenticated using PCR (Kras locus and Trp53 locus). Phoenix-Eco packaging cells and HCT-15, HCT 116, COLO 205, LS 174T, RKO and HT-29 cells were authenticated by the provider using short tandem repeat profiling. No commonly misidentified cell lines were used. Mycoplasma contamination was excluded by a PCR-based analysis.
(§2) For in vitro treatment studies, organoids were mechanically dissociated and digested using TrypLE supplemented with 100 µg ml^−1 DNaseI and 10.5 µM Y-27632 dihydrochloride (Invitrogen) at 37 °C. A total of 1,000–2,000 single cells were plated per well in white 96-well plates (Greiner) in culture medium containing 10% GFR Matrigel or Cultrex BME. The treatment with doxycycline (5 µg ml^−1), pharmacological inhibitors or corresponding volumes of DMSO was started 24 h after plating. Doxycycline was obtained from Sigma-Aldrich. […] Cell viability was measured by means of CellTiter-Glo 3D or CellTiter-Glo 2.0 reagent (Promega) according to the manufacturers’ instructions and the Infinite M Plex reader (Tecan, i-control version 3.9.1 software). Results were normalized to vehicle (DMSO) or to shNC. For cell-doubling assays, the cell number was quantified at the corresponding time points using Guava EasyCyte flow cytometer (Luminex, CytoSoft v5.2 software).

[2] = tested on: COLO 205; experiment: cell viability in human CRC cell line COLO 205; format: cell-based; conditions: for COLO 205 Cell viability (%): 4 d
Experimental: as §1, §2

[3] = tested on: PDO14; experiment: cell viability in patient-derived CRC organoids PDO14; format: cell-based, human
Experimental: as §2

[4] = Homo sapiens, RKO, first experiment

## O=C1c2ccc(Nc3ccc(F)cc3F)cc2CCc2ccc(OC[C@H](O)CO)cc21 [SKL, skepinone-L, reference compound]
[1]; 0.0412 µM, first experiment
  RKO Cell viability (%): 90.38% and 90.15%
[1]; 0.1235 µM, Repetition
  RKO Cell viability (%): 96.29%
[1]; 0.1235 µM, first experiment
  RKO Cell viability (%): 96.41% and 82.79%
[1]; 0.3704 µM, Repetition
  RKO Cell viability (%): 112.94% and 109.02%
[1]; 0.3704 µM, first experiment
  RKO Cell viability (%): 79.06% and 75.48%
[1]; 1.1111 µM, Repetition
  RKO Cell viability (%): 92.46% and 113.42% and 111.27%
[1]; 1.1111 µM, first experiment
  RKO Cell viability (%): 98.68% and 92.88%
[1]; 3.3333 µM, Repetition
  RKO Cell viability (%): 97.71% and 103.33%
[1]; 3.3333 µM, first experiment
  RKO Cell viability (%): 90.21% and 92.19%
[1]; 10.0000 µM, Repetition
  RKO Cell viability (%): 100.51% and 98.00%
[1]; 10.0000 µM, first experiment
  RKO Cell viability (%): 77.92% and 73.23%
[1]; Homo sapiens, RKO, Repetition
  viability at 0.0137 µM: 123%
  viability at 0.0412 µM: 107%
  viability at 0.1235 µM: 114%
  viability at 0.3704 µM: 108%
  viability at 3.3333 µM: 96.8%
  viability at 10 µM: 92%
[1]; [4]
  viability at 0.0137 µM: 103%
  viability at 0.0412 µM: 102%
  viability at 0.1235 µM: 91.2%
  viability at 0.3704 µM: 82.8%
  viability at 3.3333 µM: 96.5%
  viability at 10 µM: 71.1%
[1]; Homo sapiens, RKO, read-out: RKO Cell viability (%), 1.1111 µM, first experiment
  viability at 1.1111 µM: 99.3%
[2]; 0.0137 µM
  COLO 205 Cell viability (%): 96.45% and 96.38% and 97.30% and 129.19% and 99.27% and 94.84%
[2]; 0.0412 µM
  COLO 205 Cell viability (%): 127.57% and 100.82% and 92.20% and 93.68% and 91.56% and 87.30%
[2]; 0.1235 µM
  COLO 205 Cell viability (%): 118.98% and 94.94% and 87.73% and 92.65% and 90.17% and 91.06%
[2]; 0.3704 µM
  COLO 205 Cell viability (%): 128.00% and 91.92% and 96.35% and 88.32% and 91.46% and 92.15%
[2]; 1.1111 µM
  COLO 205 Cell viability (%): 104.82% and 92.26% and 92.51% and 87.03% and 84.46% and 82.14%
[2]; 3.3333 µM
  COLO 205 Cell viability (%): 118.94% and 101.69% and 108.96% and 89.84% and 86.56% and 82.40%
[2]; 10.0000 µM
  COLO 205 Cell viability (%): 88.40% and 89.99% and 81.09% and 75.75% and 75.52%
[2]; Homo sapiens, COLO 205, 96 h, read-out: COLO 205 Cell viability (%), 10.0000 µM, 4 d
  viability at 10 µM: 86.3%
[3]; Homo sapiens, 96 h, read-out: Cell viability (%), PDO14, 0.5 µM, 4 d
  viability at 0.5 µM: 104%
[3]; Homo sapiens, 96 h, read-out: Cell viability (%), PDO14, 1 µM, 4 days
  viability at 1 µM: 100%
[3]; PDO14, 0.5 µM, 4 d, 0.5 µM
  Cell viability (%): 101.08% and 101.64%
[3]; PDO14, 1 µM, 4 days, 1 µM
  Cell viability (%): 109.63% and 109.64%
